Source: patent publication US5861263A, “Preparation of preserved entamoeba histolytica antigens without enzymatic inhibitors and their use in immunological methods” (Universidad Autonoma De Nuevo Leon, priority 1992, dated 1999)

Tested on: proteases of Entamoeba histolytica crude extract
Assay: Inhibition of crude amebic extract proteolytic activity (hide powder azure)
Assay type: biochemical, Entamoeba histolytica HK-9
Details: 4 mM iodoacetamide
Description: The second method was carried out according to Rinderknecht et al., Clinica Chimica Acta., 21: 197-203 (1968). The activity corresponding to 6 million trophozoites was tested. Crude amebic extracts, IC:M and IC:MC were used. The samples were resuspended in 1.5 ml 0.05M Tris-HCL pH 7.5 containing 0.5% Triton X-100, and incubated for one hour at 4° C. and centrifuged at 11,000×g for 15 minutes. One ml. of the supernatant was added to 1 ml Tris-HCl containing 5 mg hide powder azure and 100 μl .2M cysteine. The samples were incubated at 37° C. for 1 hour and at the end of which the reaction was stopped by putting the tubes in an ice water bath. They were cold-centrifuged for 5 minutes at 450×g. The absorbency of the supernatants were determined at a wavelength of 600 nm. The former treatment was also done with samples that were incubated in the presence of SDS 2% or 2-ME 5% or 4 mM iodoacetamide. The positive control was taken as the activity obtained with 0.23 mg papain, which was activated with 0.7 mM 2-ME in Tris-HCl 0.05M at pH 8.0 at 4° C. for 10 minutes and then at 37° C. for 15 minutes with frequent stirring. Reaction mixtures without extracts were used as the negative control.

Structure (SMILES): NC(=O)CI [iodoacetamide]
- inhibition of the activity of the crude extract: approximately 70%
